# Reference: patent US20010041801A1, “Water soluble fullerenes with antiviral activity” (The Regents of the University of California, priority 1994, published 2001)
# Several values for one entry are separate records, joined by “and”; a condition that tells them apart may be missing. Equal values may be shown once. Entries after “also recorded” stand apart in the source; their conditions may differ. Read-outs that look alike come from different tables or passages of the source.
# Assays:
# HIV-1 and HIV-2 = assay: Antiviral activity in acutely or chronically infected human lymphocytes (summary statements); type: cell-based
# Description: The water soluble C60 derivatives for inactivating HIV by interacting with HIV by Van der Waals contacts with the nonpolar HIVP surface, are substituted symmetrically with organic moieties comprising from 1 to about 20 carbon atoms each and optionally further comprising polar heteroatoms, such as oxygen and nitrogen. The preferred fullerene derivatives are diamino derivatives synthesized in three steps from C60 via a suitably substituted diphenyldiazomethane. High-resolution mass spectrometric analysis of these compounds is possible only under the mild conditions of matrix-assisted laser desorption/ionization Fourier transform mass spectrometry. Direct infrared or ultraviolet laser desorption degrades the compounds so that only C60 ions are observed, in either positive or negative mode. Virus inactivation assays are provided for confirming activity of the C60 derivatives against human immunodeficiency virus type 1 (HIV-1) and HIV-2. […] Inhibition of protease (HIVP) and reverse transcriptase (HIVRT) is also shown.
# The therapeutic and prophylactic efficacy of the compounds of this invention has been shown by in vitro assays. […]
# CEM cells = assay: Cytotoxicity in CEM cells; type: cell-based; conditions: b68: up to 100 μM
# [1] = Cytotoxicity in CEM cells; type: cell-based; conditions: human, CEM cells; cell counts on day 6
# HIV-1G910-6 = assay: microbe, parasite or virus in culture; type: cell-based
# Description: (§1) The availability of AZT-resistant and -susceptible viruses allowed us to evaluate the compounds of this invention for their susceptibilities to these viruses in acutely infected PBMC in two experiments. […] In the same assay, the EC50 for TIBO [(+)-(5s)-4,5,6,7-tetrahydro-5methyl-6-(3-methyl-2-butenyl)imidazo(4,5,1-jk)(1,4)benzodiazepin-2(1 H)-thione] R82150 increased >500-fold (data not shown).
# [2] = biological target: T1, recombinant HIV-1 protease (Human immunodeficiency virus type 1 group M subtype B, UniProt P04585); assay: Antiprotease assay, method similar to Ido et al.; type: biochemical
# T1 construct: HIV produces a small, dimeric aspartyl protease which specifically cleaves the polyprotein precursors
# Protocol: Routine protocols can be followed to determine whether a derivatized buckministerfullerene compound has virucidal properties. […] This method is similar to that described by Ido, et al., J. Biol. Chem., 266:24359-24366, 1991). Inhibition is time dependent, and preincubation with the inhibitor results in greater enzyme inhibition, indicating a slow binding process
# (§2) Compound 2c also has antiprotease activity. […] The method used for the assay was similar to that described by Ido, et al., J. Biol. Chem., 266:24359-24366, 1991).
# [3] = tested on: nevirapine (BI-RG587)-resistant HIV-1; assay: Susceptibility of nevirapine-resistant HIV-1; type: cell-based; conditions: Human immunodeficiency virus 1, read-out: EC50 against nevirapine-resistant HIV-1
# HIV-1 HI 12.2 = assay: Susceptibility of pretherapy AZT-susceptible isolate in acutely infected PBMC; type: cell-based; conditions: Human immunodeficiency virus 1, PBMC, read-out: EC50 against pretherapy isolate
# Description: as §1
# pepsin = pepsin (Homo sapiens, UniProt P0DJD8); assay: Pepsin inhibition assay; type: biochemical; conditions: 0.028 μM enzyme, 0.2 M sodium citrate pH 2.0, 37° C.; read-out: IC50 against pepsin
# Sequence of pepsin (P0DJD8 63-388): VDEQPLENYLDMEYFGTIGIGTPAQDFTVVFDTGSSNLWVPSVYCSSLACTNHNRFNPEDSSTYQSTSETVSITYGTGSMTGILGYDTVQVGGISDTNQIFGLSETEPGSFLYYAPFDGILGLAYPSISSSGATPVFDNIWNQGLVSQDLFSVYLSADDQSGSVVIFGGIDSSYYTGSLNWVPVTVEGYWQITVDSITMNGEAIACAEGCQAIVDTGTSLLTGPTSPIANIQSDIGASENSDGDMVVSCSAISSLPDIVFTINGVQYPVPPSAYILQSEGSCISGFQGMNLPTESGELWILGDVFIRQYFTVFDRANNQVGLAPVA
# Description: as §2
# HIV-1 = HIV-1 p24 antigen assay in supernatants of acutely infected PBMC; type: cell-based; conditions: Human immunodeficiency virus 1; PBMC acutely infected with HIV-1
# Protocol: To determine whether the fullerene may bind tightly to inactivate the viral RT, we also measured levels of HIV-1 p24 in supernatants of treated and untreated cultures. Clarified supernatants were treated with Triton X-100 (Sigma Chemicals, St. Louis, Mo.) and tested for HIV-1 antigen by immunocapture with a commercial kit (Abbott, North Chicago, Ill.).
# Solubility in water = conditions: pH≧7
# DNA polymerase α = DNA polymerase α (Homo sapiens, UniProt P09884); assay: Inhibition of cellular DNA polymerase α, cell-free; type: biochemical; conditions: AZT-5′-triphosphate used for AZT, read-out: IC50 Polymerases: DNA Polymerase α
# Sequence of DNA polymerase α (P09884 whole entry): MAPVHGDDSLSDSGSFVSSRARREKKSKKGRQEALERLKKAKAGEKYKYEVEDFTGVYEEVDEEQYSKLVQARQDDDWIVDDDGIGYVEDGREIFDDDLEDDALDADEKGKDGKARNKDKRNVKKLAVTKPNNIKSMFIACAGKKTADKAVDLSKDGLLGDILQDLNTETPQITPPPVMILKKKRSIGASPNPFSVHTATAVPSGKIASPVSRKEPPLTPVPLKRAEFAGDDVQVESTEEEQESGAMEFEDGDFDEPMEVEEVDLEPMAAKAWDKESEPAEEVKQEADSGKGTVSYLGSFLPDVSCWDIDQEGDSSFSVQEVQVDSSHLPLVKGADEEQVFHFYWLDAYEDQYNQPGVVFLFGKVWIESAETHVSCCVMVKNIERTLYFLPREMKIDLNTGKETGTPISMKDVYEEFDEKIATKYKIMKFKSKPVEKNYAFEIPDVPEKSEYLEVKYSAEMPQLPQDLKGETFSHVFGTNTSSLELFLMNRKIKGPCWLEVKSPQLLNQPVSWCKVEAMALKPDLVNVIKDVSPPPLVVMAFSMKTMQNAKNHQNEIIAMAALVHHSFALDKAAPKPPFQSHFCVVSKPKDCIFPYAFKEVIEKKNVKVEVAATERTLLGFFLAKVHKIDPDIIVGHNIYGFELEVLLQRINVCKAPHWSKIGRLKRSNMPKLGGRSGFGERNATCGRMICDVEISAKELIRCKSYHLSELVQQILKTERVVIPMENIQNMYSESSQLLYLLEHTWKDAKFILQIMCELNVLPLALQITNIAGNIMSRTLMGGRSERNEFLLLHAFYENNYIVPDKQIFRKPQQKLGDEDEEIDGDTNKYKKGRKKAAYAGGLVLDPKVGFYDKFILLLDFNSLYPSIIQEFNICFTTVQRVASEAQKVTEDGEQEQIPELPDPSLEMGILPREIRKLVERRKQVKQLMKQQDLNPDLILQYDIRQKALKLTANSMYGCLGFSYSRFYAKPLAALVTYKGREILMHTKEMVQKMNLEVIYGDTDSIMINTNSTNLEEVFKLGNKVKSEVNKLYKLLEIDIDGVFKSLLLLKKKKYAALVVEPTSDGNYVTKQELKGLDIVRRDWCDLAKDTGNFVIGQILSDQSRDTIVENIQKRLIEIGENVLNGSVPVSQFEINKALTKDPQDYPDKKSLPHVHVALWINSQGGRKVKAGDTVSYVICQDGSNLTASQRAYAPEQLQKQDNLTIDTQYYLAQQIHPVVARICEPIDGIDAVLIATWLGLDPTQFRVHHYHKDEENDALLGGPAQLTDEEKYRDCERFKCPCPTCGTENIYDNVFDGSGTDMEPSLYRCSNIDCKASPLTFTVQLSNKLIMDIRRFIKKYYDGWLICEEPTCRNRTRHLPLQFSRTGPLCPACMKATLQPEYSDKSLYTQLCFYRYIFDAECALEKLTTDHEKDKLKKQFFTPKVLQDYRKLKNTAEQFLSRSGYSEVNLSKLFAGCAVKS
# Sequence of DNA polymerase α (Q14181 whole entry partner): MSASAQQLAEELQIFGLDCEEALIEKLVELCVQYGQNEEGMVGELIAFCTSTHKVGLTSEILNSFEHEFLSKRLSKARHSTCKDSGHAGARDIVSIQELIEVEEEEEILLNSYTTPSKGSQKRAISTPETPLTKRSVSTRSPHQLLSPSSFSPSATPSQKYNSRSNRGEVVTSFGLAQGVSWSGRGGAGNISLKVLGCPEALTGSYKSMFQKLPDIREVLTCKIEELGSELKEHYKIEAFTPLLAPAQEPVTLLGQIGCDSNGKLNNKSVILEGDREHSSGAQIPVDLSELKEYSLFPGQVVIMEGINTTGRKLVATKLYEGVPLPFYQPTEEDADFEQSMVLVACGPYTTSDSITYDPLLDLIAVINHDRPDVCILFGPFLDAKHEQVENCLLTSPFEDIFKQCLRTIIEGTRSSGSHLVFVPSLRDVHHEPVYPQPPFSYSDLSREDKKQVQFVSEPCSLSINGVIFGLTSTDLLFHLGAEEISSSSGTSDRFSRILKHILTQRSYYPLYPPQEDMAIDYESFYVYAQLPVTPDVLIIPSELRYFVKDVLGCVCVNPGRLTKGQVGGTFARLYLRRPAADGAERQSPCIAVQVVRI
# Sequence of DNA polymerase α (P49642 whole entry partner): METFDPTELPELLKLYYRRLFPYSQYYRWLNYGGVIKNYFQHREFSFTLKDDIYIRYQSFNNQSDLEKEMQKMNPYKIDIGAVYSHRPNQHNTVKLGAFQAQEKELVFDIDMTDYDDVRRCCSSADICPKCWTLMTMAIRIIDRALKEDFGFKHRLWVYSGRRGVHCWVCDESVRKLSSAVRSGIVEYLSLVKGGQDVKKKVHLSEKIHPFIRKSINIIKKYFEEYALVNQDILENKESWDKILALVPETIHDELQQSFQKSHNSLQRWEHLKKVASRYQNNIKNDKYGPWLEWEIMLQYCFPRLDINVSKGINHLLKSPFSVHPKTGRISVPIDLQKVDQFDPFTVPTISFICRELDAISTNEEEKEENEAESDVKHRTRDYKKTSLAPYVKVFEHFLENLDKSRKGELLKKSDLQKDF
# Sequence of DNA polymerase α (P49643 whole entry partner): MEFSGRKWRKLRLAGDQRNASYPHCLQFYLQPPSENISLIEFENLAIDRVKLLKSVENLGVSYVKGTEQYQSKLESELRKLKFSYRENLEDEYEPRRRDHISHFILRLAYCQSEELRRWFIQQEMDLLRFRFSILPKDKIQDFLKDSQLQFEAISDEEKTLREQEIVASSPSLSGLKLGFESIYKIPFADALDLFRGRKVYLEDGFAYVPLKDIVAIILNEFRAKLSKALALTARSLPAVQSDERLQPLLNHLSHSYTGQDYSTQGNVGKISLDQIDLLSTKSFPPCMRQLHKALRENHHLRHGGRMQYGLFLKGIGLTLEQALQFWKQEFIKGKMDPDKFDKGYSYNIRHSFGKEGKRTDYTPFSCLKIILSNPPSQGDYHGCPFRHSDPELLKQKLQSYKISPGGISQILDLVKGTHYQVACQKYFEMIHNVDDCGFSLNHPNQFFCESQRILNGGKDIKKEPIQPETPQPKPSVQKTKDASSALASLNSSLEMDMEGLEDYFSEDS
# Vero cells = assay: Cytotoxicity in Vero cells; type: cell-based; conditions: b68: up to 100 μM
# [4] = Cytotoxicity in Vero cells; type: cell-based; conditions: African green monkey, Vero cells; day 3
# HIV-1 RT = HIV-1 RT (Human immunodeficiency virus type 1 group M subtype B, UniProt P04585); assay: Inhibition of recombinant p66/51 HIV-1 RT, poly(rA)n.oligo(T)12-18 template-primer; type: biochemical; conditions: IC50 Polymerases: HIV-1 RT, cell-free; AZT-5′-triphosphate used for AZT
# Protocol: The compound was also evaluated for its inhibitory effect on recombinant p66/51 HIV-1 RT by using poly(rA)n.oligo(T)12-18 as the template-primer as described in Schinazi, et al. (1992, supra). Compound 2c was active against this enzyme, with a median inhibitory concentration (1C50) of 4.6 μM. This value was of the same order of magnitude as that noted for the antiviral assays (TABLE 3). […] AZT-5′ triphosphate and phosphonoformate (PFA), used as positive controls, were effective and selective against HIV-1 RT.
structure (smiles),measurement,setting,value
"O=C(O)CCC(=O)NCCc1ccc(C2(c3ccc(CCNC(=O)CCC(=O)O)cc3)C34c5c6c7c8c9c%10c(c%11c%12c3c3c5c5c%13c6c6c7c7c9c9c%14c%10c%10c%11c%11c%12c%12c3c3c5c5c%13c%13c6c6c7c9c7c9c%14c%10c%10c%11c%11c%12c3c3c5c5c%13c6c7c6c9c%10c%11c3c56)C824)cc1 [Compound 2c, bis(monosuccinimide) derivative of p,p′-bis(2-aminoethyl)diphenyl-C60]",EC50,"HIV-1 and HIV-2; Human immunodeficiency virus 1, H9, HIV-1, summary, read-out: EC50, acutely and chronically HIV-1 infected PBMC and chronically infected H9 cells",7 µM
same,EC50,"HIV-1 and HIV-2; Lymphocyte, average over assays, read-out: EC50 averaging, HIV-1 and HIV-2 in acute or chronically infected human lymphocytes",~6 µM
same,cytotoxicity in CEM cells,CEM cells,No cytotoxicity; also recorded: noncytotoxic
same,IC50 at 6 days,[1],> 100 µM
same,EC50,"HIV-1G910-6; Human immunodeficiency virus 1, PBMC, read-out: EC50 against AZT-resistant HIV-1, acutely infected PBMC / lymphocytes",2.8 µM
same,EC50,"HIV-1G910-6; read-out: EC50 against AZT-resistant HIV-1, acutely infected PBMC / lymphocytes",3 µM
same,IC50,[2],2 µM
same,EC50,[3],8.7 µM
same,EC50,HIV-1 HI 12.2,2 to 8 µM
same,IC50,pepsin,20 µM
same,EC50,HIV-1,50 µM
same,solubility in water,Solubility in water,soluble
same,IC50,DNA polymerase α,4.9 µM and ~5 µM
same,cytotoxicity in Vero cells,Vero cells,No cytotoxicity; also recorded: noncytotoxic
same,IC50 at 3 days,[4],> 100 µM
same,IC50,HIV-1 RT,4.6 µM and ~5 µM
